According to the supplement of paper PMC11061612:

What was measured:
Experiment in all cases: Bliss excess, mean over the matrix (fraction); higher = more synergy
[1] = system: NCI-H2009 (Lung Adenocarcinoma)
In short: (§1)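 Bliss excess equals the observed combination effect minus the expected value EA + EB − EA·EB, where EA and EB are the effects of each agent alone. Combination Emax is the second-highest inhibition within the matrix. Inhibition was scaled from CellTiter-Glo 2.0 luminescence, with 0 set by vehicle wells and 1 by blank wells, after 72 hours of two-drug dosing of cells plated in 1536-well plates.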

[2] = system: HT-3 (Cervical Carcinoma)
In short: as §1

[3] = system: C2BBe1 (Colorectal Carcinoma)
In short: as §1

[4] = system: JJN-3 (Plasma Cell Myeloma)
In short: as §1

[5] = system: MRK-nu-1 (Breast Carcinoma)
In short: as §1

[6] = system: JURL-MK1 (Chronic Myelogenous Leukemia)
In short: as §1

[7] = system: GRANTA-519 (B-Cell Non-Hodgkin's Lymphoma)
In short: as §1

[8] = system: CAL-85-1 (Breast Carcinoma)
In short: as §1

[9] = system: BT-474 (Breast Carcinoma)
In short: as §1

[10] = system: SK-MEL-24 (Melanoma)
In short: as §1

[11] = system: NCI-H1975 (Lung Adenocarcinoma)
In short: as §1

[12] = system: TOV-21G (Ovarian Carcinoma)
In short: as §1

[13] = system: A375 (Melanoma)
In short: as §1

[14] = system: IGROV-1 (Ovarian Carcinoma)
In short: as §1

[15] = system: NCI-H1048 (Small Cell Lung Carcinoma)
In short: as §1

[16] = system: KNS-62 (Squamous Cell Lung Carcinoma)
In short: as §1

[17] = system: L-363 (Plasma Cell Myeloma)
In short: as §1

[18] = system: NCI-H1648 (Lung Adenocarcinoma)
In short: as §1

[19] = system: TK (B-Cell Non-Hodgkin's Lymphoma)
In short: as §1

With `CC(=O)Nc1cccc(-n2c(=O)n(C3CC3)c(=O)c3c(Nc4ccc(I)cc4F)n(C)c(=O)c(C)c32)c1` [Trametinib] + Cc1nc(-c2cn3c(n2)-c2ccc(-c4cnn(C(C)(C)C(N)=O)c4)cc2OCC3)n(C(C)C)n1 [Taselisib] (first compound max 1 µM, 7x7, partner max 10 µM) the Bliss excess [1] was 0.151, the Bliss excess [2] was 0.12 and the Bliss excess [3] was 0.0464. The Bliss excess [4] was 0.204, the Bliss excess [5] was 0.0116 and the Bliss excess [6] was -0.0107. The Bliss excess [7] was -0.0007, the Bliss excess [8] was 0.213 and the Bliss excess [9] was 0.0002. The Bliss excess [10] was 0.012, the Bliss excess [11] was 0.177 and the Bliss excess [12] was -0.051. For the same compound, the Bliss excess [13] was 0.0783, the Bliss excess [14] was -0.0339 and the Bliss excess [15] was 0.245. The Bliss excess [16] was 0.056, the Bliss excess [17] was 0.241 and the Bliss excess [18] was 0.0655. The Bliss excess [19] was -0.0052.
`C=CCn1c(=O)c2cnc(Nc3ccc(N4CCN(C)CC4)cc3)nc2n1-c1cccc(C(C)(C)O)n1` [AZD1775] + C[C@@H]1COCCN1C2=NC(=NC(=C2)C3(CC3)[S@](=N)(=O)C)C4=C5C=CNC5=NC=C4 [AZD6738] (first compound max 1 µM, partner max 10 µM) was tested, and the Bliss excess [1] was 0.0987, the Bliss excess [2] was 0.0386 and the Bliss excess [3] was 0.0278. For the same compound, the Bliss excess [4] was 0.0559, the Bliss excess [5] was 0.0633 and the Bliss excess [6] was 0.0515. For the same compound, the Bliss excess [7] was 0.0068, the Bliss excess [8] was -0.0511 and the Bliss excess [9] was -0.0425. It also gave a Bliss excess [10] of -0.0189, a Bliss excess [11] of 0.0451 and a Bliss excess [12] of -0.0523. For the same compound, the Bliss excess [13] was 0.0154, the Bliss excess [14] was -0.0348 and the Bliss excess [15] was 0.0582. For the same compound, the Bliss excess [16] was 0.0257, the Bliss excess [17] was 0.0474 and the Bliss excess [18] was 0.0111. For the same compound, the Bliss excess [19] was 0.0031.
`CN(C)CCCOc1ccc(-c2ccc3ncc4c(c3c2)n(C2CCOCC2)c(=O)n4C)cn1` [AZD0156] + C[C@@H]1COCCN1C2=NC(=NC(=C2)C3(CC3)[S@](=N)(=O)C)C4=C5C=CNC5=NC=C4 [AZD6738] (first compound max 1 µM, 7x7, partner max 10 µM) gave a Bliss excess [1] of -0.0045, a Bliss excess [2] of 0.0031 and a Bliss excess [3] of -0.0234. For the same compound, the Bliss excess [4] was 0.161, the Bliss excess [5] was -0.0411 and the Bliss excess [6] was 0.0269. The Bliss excess [7] was -0.0335, the Bliss excess [8] was 0.0042 and the Bliss excess [9] was -0.0416. It also gave a Bliss excess [10] of -0.0159, a Bliss excess [11] of 0.0026 and a Bliss excess [12] of 0.025. The Bliss excess [13] was 0.0378, the Bliss excess [14] was -0.0187 and the Bliss excess [15] was -0.0129. For the same compound, the Bliss excess [16] was -0.0343, the Bliss excess [17] was 0.0767 and the Bliss excess [18] was 0.005. It also gave a Bliss excess [19] of 0.0289.
`Cc1c2c(nn1C)CSCc1cc(n(C)n1)CSc1cc(c3ccccc3c1)OCCCc1c(C(=O)O)n(C)c3c-2c(Cl)ccc13` [AZD5991] + C1CN(CCC1(C(=O)N[C@@H](CCO)C2=CC=C(C=C2)Cl)N)C3=NC=NC4=C3C=CN4 [Capivasertib] (first compound max 1 µM, 7x7, partner max 3 µM) showed a Bliss excess [1] of -0.0207, a Bliss excess [2] of 0.0198 and a Bliss excess [3] of -0.0214. The Bliss excess [4] was -0.041, the Bliss excess [5] was 0.0055 and the Bliss excess [6] was 0.0028. The Bliss excess [7] was -0.0295, the Bliss excess [8] was -0.0289 and the Bliss excess [9] was 0.0359. It also gave a Bliss excess [10] of -0.0196, a Bliss excess [11] of 0.0322 and a Bliss excess [12] of -0.0249. For the same compound, the Bliss excess [13] was -0.0192, the Bliss excess [14] was 0.0239 and the Bliss excess [15] was 0.0267. The Bliss excess [16] was 0.0047, the Bliss excess [17] was 0.0476 and the Bliss excess [18] was -0.0326. The Bliss excess [19] was -0.0039.
Work on `CC1(C)CCC(CN2CCN(c3ccc(C(=O)NS(=O)(=O)c4ccc(NCC5CCOCC5)c([N+](=O)[O-])c4)c(Oc4cnc5[nH]ccc5c4)c3)CC2)=C(c2ccc(Cl)cc2)C1` [Venetoclax] + C1CN(CCC1(C(=O)N[C@@H](CCO)C2=CC=C(C=C2)Cl)N)C3=NC=NC4=C3C=CN4 [Capivasertib] (first compound max 1 µM, 7x7, partner max 3 µM) yielded a Bliss excess [1] of -0.0299, a Bliss excess [2] of -0.0231 and a Bliss excess [3] of -0.0585. It also gave a Bliss excess [4] of -0.0035, a Bliss excess [5] of -0.0212 and a Bliss excess [6] of -0.0259. For the same compound, the Bliss excess [7] was 0.0036, the Bliss excess [8] was -0.031 and the Bliss excess [9] was -0.0376. It also gave a Bliss excess [10] of -0.0695, a Bliss excess [11] of -0.0362 and a Bliss excess [12] of -0.0533. The Bliss excess [13] was -0.0463, the Bliss excess [14] was -0.0182 and the Bliss excess [15] was 0.0124. It also gave a Bliss excess [16] of -0.0474, a Bliss excess [17] of 0.0096 and a Bliss excess [18] of -0.0405. The Bliss excess [19] was -0.0111.
Compound `Cc1c2c(nn1C)CSCc1cc(n(C)n1)CSc1cc(c3ccccc3c1)OCCCc1c(C(=O)O)n(C)c3c-2c(Cl)ccc13` [AZD5991] + C[C@@H](Nc1cc(F)cc(F)c1)c1cc(C(=O)N(C)C)cc2c(=O)cc(N3CCOCC3)oc12 [AZD8186] (first compound max 1 µM, 7x7, partner max 3 µM) has a Bliss excess [1] of -0.0076, a Bliss excess [2] of 0.0217 and a Bliss excess [3] of -0.026. The Bliss excess [4] was -0.0448, the Bliss excess [5] was 0.0152 and the Bliss excess [6] was -0.0112. The Bliss excess [7] was -0.0444, the Bliss excess [8] was -0.0067 and the Bliss excess [9] was -0.0099. The Bliss excess [10] was -0.0081, the Bliss excess [11] was -0.0203 and the Bliss excess [12] was -0.0139. For the same compound, the Bliss excess [13] was -0.0124, the Bliss excess [14] was -0.0611 and the Bliss excess [15] was 0.0019. The Bliss excess [16] was -0.0449, the Bliss excess [17] was -0.0476 and the Bliss excess [18] was -0.0508. It also gave a Bliss excess [19] of -0.0143.
With `Cc1c2c(nn1C)CSCc1cc(n(C)n1)CSc1cc(c3ccccc3c1)OCCCc1c(C(=O)O)n(C)c3c-2c(Cl)ccc13` [AZD5991] + CCN(CCO)CCCOc1ccc2c(Nc3cc(CC(=O)Nc4cccc(F)c4)[nH]n3)ncnc2c1 [AZD2811] (first compound max 1 µM, 7x7, partner max 1 µM) the Bliss excess [1] was 0.071, the Bliss excess [2] was 0.162 and the Bliss excess [3] was -0.0093. For the same compound, the Bliss excess [4] was 0.0225, the Bliss excess [5] was 0.0321 and the Bliss excess [6] was 0.098. The Bliss excess [7] was 0.109, the Bliss excess [8] was -0.0011 and the Bliss excess [9] was 0.0314. For the same compound, the Bliss excess [10] was 0.0258, the Bliss excess [11] was 0.0047 and the Bliss excess [12] was 0.0576. It also gave a Bliss excess [13] of 0.0227, a Bliss excess [14] of -0.0053 and a Bliss excess [15] of 0.0766. It also gave a Bliss excess [16] of 0.0156, a Bliss excess [17] of 0.0523 and a Bliss excess [18] of 0.0051. The Bliss excess [19] was 0.0228.
